Assay results taken from patent US20260183302A1, “PDK1 REGULATORY COMPOUND AND COMPOSITION CONTAINING THE SAME” (PROVIBIO CO., LTD., priority 2024, published 2026).

Assays:
psoriasis-induced mice = assay: In vivo psoriasis model (Aldara cream, Imiquimod); design: species or system BALB/c mice
Method: To verify the therapeutic effect of the compound according to the present invention on psoriasis, a psoriasis animal model was established as follows, and the compound according to the present invention was administered to evaluate the alleviation of skin lesions and changes in immune cell patterns.
For the establishment of the psoriasis animal model, BALB/c mice (7 weeks old, female, 20 g) were purchased from HanabioTech Co., Ltd. and acclimatized to the rearing environment for one week.
Subsequently, the hair on the mouse back was shaved using a hair removal device for the first time, and then completely shaved using a depilatory cream (Nicrin Cream (80% thioglycolic acid, Il Dong Pharmaceutical)) for the second time. The mice were then kept for 24 hours to confirm the absence of skin damage.
To verify the psoriasis prevention and therapeutic effects of the compounds according to the present invention, the following experimental groups were established:
[Normal control group (Normal, Not Treatment), psoriasis-induced control group (Psoriasis, Not Treatment), psoriasis-induced vehicle control group (Psoriasis, Vehicle), experimental group (GO85, GO86, GO88, GO89, PBK-2024-010, PBK-2024-026, PBK-2025-002, PBK-2025-004, PBK-2025-016, PBK-2025-017, PBK-2025-023)]. […]
Body weights of mice in each group were measured on days 1, 4, and 8 after the start of injection and psoriasis induction. […]
To evaluate the therapeutic effect in a psoriasis-induced mouse model, the PASI (Psoriasis Area and Severity Index) score was measured.
The PASI score is based on three criteria: erythema, scaling, and skin thickness, each scored from 0 (none) to 4 (severe). […]
Observations were conducted daily at the same time, and the same observer visually assessed each criterion and recorded the scores, with the results presented in FIG. 13. […]
All samples were measured in duplicate, and the absorbance was measured at 450 nm using a microplate reader.

[1] = test system: HCT-116 colon cancer cell lines; assay: Matrigel Invasion Assay on HCT-116 colon cancer cell line; assay type: cell-based, human; conditions: HCT-116, Matrigel, 24 hours treatment, vs DMSO
Method: To evaluate the metastasis inhibitory efficacy of the compounds of the present invention on HCT-116 colon cancer cell lines, an Invasion Assay using Matrigel was performed to assess the cells' invasion ability.
First, Matrigel was thawed on ice in RPMI-1640 medium without FBS, then diluted with DMEM at a ratio of 1:20.
The diluted Matrigel mixture was applied to the upper chamber at 100 μl per well, and 750 μl of RPMI-1640 without FBS was added to the lower chamber.
The plates were then incubated at 37° C. for 1 hour to allow the Matrigel to solidify.
After coating, the Matrigel mixture in the upper chamber was removed using a pipette, and the chamber was washed with RPMI without FBS.
Human-derived colorectal cancer cell line HCT-116, obtained from the Korean Cell Bank, was cultured in RPMI-1640 medium containing 10% FBS.
Following stabilization, the cells were harvested using Trypsin-EDTA treatment, centrifuged at 1,200 rpm for 3 minutes, the supernatant was removed, and the cells were resuspended in the same medium, the medium in the lower chamber was replaced with 750 μl of RPMI-1640 supplemented with 10% FBS, and the cells were seeded into the upper chamber at a density of 5×10^4 cells/well.
The cells were cultured for 24 hours after attachment, and then the compounds according to the present invention (G078, G085, G086, G088, G089, PBK-2024-010, PBK-2025-010, PBK-2025-013, PBK-2025-016) and the control substance DMSO were diluted and added to the upper chamber after removing the medium.
Additionally, the medium in the lower chamber was replaced with fresh RPMI-1640 containing FBS, and the culture was continued.
After an additional 24 hours, the medium was removed, and 1 ml of methanol was added for 10 minutes to fix the cells.
Subsequently, 1 ml of Hematoxylin was added and reacted for 5 minutes, followed by 1 ml of Eosin, which was reacted for 30 seconds. The sample was then washed with distilled water (DW).
After staining was complete, any remaining cells in the upper chamber were removed. Finally, the infiltrated cells were observed under a microscope, photographed, and the degree of infiltration was analyzed.

## Nc1nc(NC(=O)CCCCCCCCCCCCN2CCN(CCO)CC2)nc2nc[nH]c12 [Compound 15, 12-[4-(2-hydroxyethyl)piperazin-1-yl]dodecyl-N-(6-aminopurine-2-yl) carboxamide]
psoriasis-induced mice
  efficacy in improving dermatological symptoms: excellent efficacy in improving dermatological symptoms
[1]
  number of infiltrated cells (invasion): reduction in the number of infiltrated cells
